Reference: ChEMBL document CHEMBL5674860, “Optimized Dual-Glo Assay to identify co-culture-induced drug vulnerabilities in 3D CRC models” (2024)

Tests used:
Format in all cases: functional, Homo sapiens
Set-up in all cases: dose or concentration left out as unconfirmed
Colon cancer organoid [1] = assay: Optimized Dual-Glo assay to identify co-culture induced drug vulnerabilities using donated chemical probes and chemogenomics kinase set in O06 CRC organoid and F06 CAF mono and co-culture. […] Cell viability is reported both mono and co-culture models.
Colon cancer organoid [2] = assay: Optimized Dual-Glo assay to identify co-culture induced drug vulnerabilities using donated chemical probes and chemogenomics kinase set in O14 CRC organoid and F14 CAF mono and co-culture. […] Cell viability is reported both mono and co-culture models.
Colon cancer organoid [3] = assay: Optimized Dual-Glo assay to identify co-culture induced drug vulnerabilities using donated chemical probes and chemogenomics kinase set in O20 CRC organoid and F20 CAF mono and co-culture. […] Cell viability is reported both mono and co-culture models.
[4] = Culture type Co-Culture, Transduced with Lucferase2-P2A-EGFP lentivirus
[5] = Culture type Co-Culture, Transduced with Renilla-dsRed lentivirus
[6] = Culture type Mono-Culture, Transduced with Lucferase2-P2A-EGFP lentivirus
[7] = Culture type Mono-Culture, Transduced with Renilla-dsRed lentivirus

Structure (SMILES) | Cell Viability (Colon cancer organoid [1]; [4]) | Cell Viability (Colon cancer organoid [1]; [5]) | Cell Viability (Colon cancer organoid [1]; [6]) | Cell Viability (Colon cancer organoid [1]; [7]) | Cell Viability (Colon cancer organoid [2]; [4]) | Cell Viability (Colon cancer organoid [2]; [5]) | Cell Viability (Colon cancer organoid [2]; [6]) | Cell Viability (Colon cancer organoid [2]; [7]) | Cell Viability (Colon cancer organoid [3]; [4]) | Cell Viability (Colon cancer organoid [3]; [5]) | Cell Viability (Colon cancer organoid [3]; [6]) | Cell Viability (Colon cancer organoid [3]; [7])
CN1CCN(C(=O)C(C)(C)c2ccc(C(=O)Nc3cn4cc(-c5cc(C(C)(C)C)cc(C(C)(C)C)c5)ccc4n3)cc2)CC1 [T3-CLK-N] | 119.67% | 85.6501% | 109.915% | 85.7063% | 129.357% | 95.6255% | 93.4655% | 83.9103% | 83.0148% | 112.725% | 124.688% | 67.9916%
CN1CCN(C(=O)C(C)(C)c2ccc(C(=O)Nc3cn4cc(-c5ccncc5)ccc4n3)cc2)CC1 [T3-CLK] | 42.8408% | 189.116% | 24.3767% | 109.981% | 26.2693% | 164.302% | 35.9707% | 93.5791% | 17.3495% | 291.942% | 28.5908% | 98.0167%
COc1cccc(CNC(=O)c2nc3scc(CN(C)Cc4ccccc4)c3c(=O)[nH]2)c1 [T-26f] | 114.676% | 151.389% | 102.721% | 101.465% | 86.5179% | 95.8142% | 82.3734% | 95.7877% | 156.545% | 109.586% | 116.769% | 103.534%
O[C@H]1CC[C@H](Nc2ncc3nc(Nc4c(F)cc(F)cc4F)n([C@H]4CCOC4)c3n2)CC1 [TANZISERTIB] | 96.802% | 109.826% | 106.51% | 114.573% | 101.857% | 126.192% | 105.608% | 109.828% | 129.23% | 97.8883% | 76.6269% | 101.702%
Cc1nc(-c2cn3c(n2)-c2ccc(-c4cnn(C(C)(C)C(N)=O)c4)cc2OCC3)n(C(C)C)n1 [TASELISIB] | 42.3556% | 62.2904% | 29.0303% | 59.8749% | 25.1108% | 133.934% | 29.7364% | 65.8836% | 15.8608% | 146.008% | 9.086% | 84.7341%
COc1cccc2c1c(O)c(C(=O)N(C)c1ccc(C(F)(F)F)cc1)c(=O)n2C [TASQUINIMOD] | 78.5663% | 130.265% | 63.1287% | 110.699% | 94.583% | 144.919% | 82.4794% | 97.8059% | 63.9822% | 99.9703% | 87.5673% | 108.719%
C[C@@H]1CCN(C(=O)CC#N)C[C@@H]1N(C)c1ncnc2[nH]ccc12.O=C(O)CC(O)(CC(=O)O)C(=O)O [TOFACITINIB CITRATE] | 105.115% | 91.9737% | 115.164% | 114.62% | 119.294% | 99.6774% | 102.323% | 98.8919% | 115.032% | 86.9545% | 89.5356% | 81.856%
CCC(=O)N1CCN(c2ccc(-n3c(=O)ccc4cnc5ccc(-c6cnc7ccccc7c6)cc5c43)cc2C(F)(F)F)CC1 [TORIN1] | 4.705% | 40.1911% | 4.406% | 17.8443% | 6.678% | 21.6908% | 9.433% | 15.03% | 7.384% | 44.8651% | 4.069% | 24.9993%
Cc1cnc(-c2cc(Cl)ccc2F)cc1-n1c(=O)n(CC(N)=O)c2cnccc21 [TP-008] | 13.7504% | 213.932% | 47.0575% | 82.299% | 97.8203% | 116.603% | 124.72% | 98.4627% | 64.1613% | 114.054% | 79.9392% | 106.384%
Cn1nc(C(F)(F)F)cc1-c1cnc(N2CCc3cc(S(=O)(=O)Nc4c(F)cc(Cl)cc4F)cc(N4CCCC4=O)c32)nc1 [TP-020] | 112.159% | 131.656% | 120.125% | 102.548% | 84.372% | 107.562% | 84.9301% | 79.7114% | 86.7802% | 95.2287% | 142.794% | 105.743%
